“And” between values parts separate entries of the source, which are not always exact repeats. Identical values can stand only once. Inconclusive results and toxic doses are left out.
Tested on: BDF1 mice, B16 melanoma ip, median survival T/C
Test: NCI In Vivo Anticancer Drug Screen. Data for tumor model B16 Melanoma (intraperitoneal) in B6D2F1 (BDF1) mice
Conditions: endpoint: median survival time, higher = longer survival
In short: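 In this screen, activity was judged from survival or tumor size in treated versus vehicle-treated tumor-bearing mice, reported as T/C.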

[1] = dose: 50.0 mg/kg/injection, schedule: Q01DX009 (ip), vehicle: Klucel (hydroxypropylcellulose) (HPC)
[2] = dose: 100.0 mg/kg/injection, schedule: Q01DX009 (ip), vehicle: Klucel (hydroxypropylcellulose) (HPC)
[3] = dose: 200.0 mg/kg/injection, schedule: Q01DX009 (ip), vehicle: Klucel (hydroxypropylcellulose) (HPC)
[4] = dose: 400.0 mg/kg/injection, schedule: Q01DX009 (ip), vehicle: Klucel (hydroxypropylcellulose) (HPC)
[5] = dose: 12.5 mg/kg/injection, schedule: Q01DX009 (ip), vehicle: Klucel (hydroxypropylcellulose) (HPC)
[6] = dose: 25.0 mg/kg/injection, schedule: Q01DX009 (ip), vehicle: Klucel (hydroxypropylcellulose) (HPC)

## CC[C@@]1(O)C[C@H](OC2CC(N(C)C)C(OC3CC(O)C(OC4CC(O)C(O)C(C)O4)C(C)O3)C(C)O2)c2c(cc3c(c2O)C(=O)c2c(O)ccc(O)c2C3=O)[C@H]1C(=O)OC (stereo partly specified)
dose: 0.03 mg/kg/injection, schedule: Q01DX001 (ip), vehicle: saline
  T/C: 105 % of control
dose: 0.05 mg/kg/injection, schedule: Q01DX001 (ip), vehicle: saline
  T/C: 118 % of control
dose: 0.1 mg/kg/injection, schedule: Q01DX001 (ip), vehicle: saline
  T/C: 119 % of control
dose: 0.25 mg/kg/injection, schedule: Q01DX009 (ip), vehicle: other
  T/C: 161 % of control
dose: 0.5 mg/kg/injection, schedule: Q01DX009 (ip), vehicle: other
  T/C: 161 % of control
dose: 0.8 mg/kg/injection, schedule: Q01DX001 (ip), vehicle: saline
  T/C: 163 % of control
dose: 1.0 mg/kg/injection, schedule: Q01DX009 (ip), vehicle: alcohol
  T/C: 210 % of control
dose: 1.0 mg/kg/injection, schedule: Q01DX009 (ip), vehicle: other
  T/C: 188 % of control
dose: 1.6 mg/kg/injection, schedule: Q01DX001 (ip), vehicle: saline
  T/C: 168 % of control
dose: 2.0 mg/kg/injection, schedule: Q01DX009 (ip), vehicle: alcohol
  T/C: 216 % of control
dose: 2.16 mg/kg/injection, schedule: Q01DX001 (ip), vehicle: water
  T/C: 106 % of control
dose: 3.6 mg/kg/injection, schedule: Q01DX001 (ip), vehicle: water
  T/C: 97 % of control
dose: 6.0 mg/kg/injection, schedule: Q01DX001 (ip), vehicle: water
  T/C: 100 % of control
dose: 10.0 mg/kg/injection, schedule: Q01DX001 (ip), vehicle: water
  T/C: 89 % of control

## CCN(CC)CCOc1ccc(NC2=C(Cl)C(=O)C(Nc3ccc(OCCN(CC)CC)cc3)=C(Cl)C2=O)cc1
dose: 6.25 mg/kg/injection, schedule: Q01DX009 (ip), vehicle: saline + alcohol
  T/C: 95 % of control
dose: 12.5 mg/kg/injection, schedule: Q01DX009 (ip), vehicle: saline + alcohol
  T/C: 98 % of control
dose: 25.0 mg/kg/injection, schedule: Q01DX009 (ip), vehicle: saline + alcohol
  T/C: 91 % of control

## O=C(CCBr)N1CCN(C(=O)CCBr)CC1
dose: 2.5 mg/kg/injection, schedule: Q01DX009 (ip), vehicle: saline with Tween-80
  T/C: 100 % of control
dose: 5.0 mg/kg/injection, schedule: Q01DX009 (ip), vehicle: saline with Tween-80
  T/C: 102 % of control
dose: 5.0 mg/kg/injection, schedule: Q01DX009 (ip), vehicle: saline
  T/C: 109 % of control
dose: 10.0 mg/kg/injection, schedule: Q01DX009 (ip), vehicle: saline with Tween-80
  T/C: 104 % of control
dose: 10.0 mg/kg/injection, schedule: Q01DX009 (ip), vehicle: saline
  T/C: 111 % of control and 117 % of control
dose: 20.0 mg/kg/injection, schedule: Q01DX009 (ip), vehicle: saline with Tween-80
  T/C: 116 % of control
dose: 20.0 mg/kg/injection, schedule: Q01DX009 (ip), vehicle: saline
  T/C: 119 % of control
dose: 40.0 mg/kg/injection, schedule: Q01DX009 (ip), vehicle: saline with Tween-80
  T/C: 122 % of control

## O=C(O)c1cc2oc3ccccc3c2cc1O
[1]
  T/C: 116 % of control
[2]
  T/C: 110 % of control

## CCC(=O)O[C@H]1CC[C@H]2[C@@H]3[C@@H](C)CC4=CC(=O)CC[C@]4(C)[C@H]3CC[C@]12C
dose: 25.0 mg/kg/injection, schedule: Q01DX009 (ip), vehicle: saline with Tween-80
  T/C: 98 % of control
dose: 50.0 mg/kg/injection, schedule: Q01DX009 (ip), vehicle: saline with Tween-80
  T/C: 91 % of control
dose: 100.0 mg/kg/injection, schedule: Q01DX009 (ip), vehicle: saline with Tween-80
  T/C: 87 % of control and 89 % of control
dose: 100.0 mg/kg/injection, schedule: Q04DX003 (ip), vehicle: saline with Tween-80
  T/C: 100 % of control
dose: 200.0 mg/kg/injection, schedule: Q04DX003 (ip), vehicle: saline with Tween-80
  T/C: 100 % of control
dose: 400.0 mg/kg/injection, schedule: Q04DX003 (ip), vehicle: saline with Tween-80
  T/C: 86 % of control

## O=C(Nc1cc(C(F)(F)F)ccc1Cl)c1ccccc1
[2]
  T/C: 94 % of control
[3]
  T/C: 91 % of control
[4]
  T/C: 94 % of control

## CNC(=O)OCc1c(COC(=O)NC)c(-c2ccccc2)n(C)c1-c1ccccc1
dose: 3.12 mg/kg/injection, schedule: Q01DX009 (ip), vehicle: distilled water + Tween-80
  T/C: 161 % of control
dose: 6.25 mg/kg/injection, schedule: Q01DX009 (ip), vehicle: distilled water + Tween-80
  T/C: 159 % of control
dose: 12.5 mg/kg/injection, schedule: Q01DX009 (ip), vehicle: distilled water + Tween-80
  T/C: 166 % of control
dose: 25.0 mg/kg/injection, schedule: Q01DX009 (ip), vehicle: distilled water + Tween-80
  T/C: 206 % of control

## On1cnc(=S)c2[nH]cnc21
dose: 100.0 mg/kg/injection, schedule: Q01DX009 (ip), vehicle: saline sonified
  T/C: 106 % of control
dose: 200.0 mg/kg/injection, schedule: Q01DX009 (ip), vehicle: saline sonified
  T/C: 104 % of control
dose: 400.0 mg/kg/injection, schedule: Q01DX009 (ip), vehicle: saline sonified
  T/C: 90 % of control

## CC(Cc1ccccc1)NC1CC2CCC1C2 (stereo unspecified)
dose: 12.5 mg/kg/injection, schedule: Q01DX009 (ip), vehicle: saline
  T/C: 101 % of control
dose: 25.0 mg/kg/injection, schedule: Q01DX009 (ip), vehicle: saline
  T/C: 102 % of control
dose: 50.0 mg/kg/injection, schedule: Q01DX009 (ip), vehicle: saline
  T/C: 101 % of control

## CCCC1=NNc2n[nH]c(=S)n2N1
[5]
  T/C: 106 % of control
[6]
  T/C: 112 % of control
[1]
  T/C: 87 % of control

## CCOC(=O)/C=C(\C)Nc1ccc(F)cc1
[2]
  T/C: 88 % of control
[3]
  T/C: 97 % of control
[4]
  T/C: 91 % of control

## Oc1ccc(C2C=CCC2)cc1C1C=CCC1 (stereo unspecified)
[2]
  T/C: 99 % of control and 100 % of control
[3]
  T/C: 89 % of control and 96 % of control
[4]
  T/C: 100 % of control and 107 % of control

## COC(=O)[C@H]1[C@H]2C[C@@H]3c4[nH]c5cc(OC)ccc5c4CCN3C[C@H]2C[C@@H](OC(=O)/C=C/c2cc(OC)c(OC)c(OC)c2)[C@@H]1OC
dose: 0.09 mg/kg/injection, schedule: Q01DX009 (ip), vehicle: Klucel (hydroxypropylcellulose) (HPC)
  T/C: 90 % of control
dose: 0.19 mg/kg/injection, schedule: Q01DX009 (ip), vehicle: Klucel (hydroxypropylcellulose) (HPC)
  T/C: 94 % of control
dose: 0.39 mg/kg/injection, schedule: Q01DX009 (ip), vehicle: Klucel (hydroxypropylcellulose) (HPC)
  T/C: 94 % of control and 100 % of control
dose: 0.78 mg/kg/injection, schedule: Q01DX009 (ip), vehicle: Klucel (hydroxypropylcellulose) (HPC)
  T/C: 86 % of control and 90 % of control
dose: 1.56 mg/kg/injection, schedule: Q01DX009 (ip), vehicle: Klucel (hydroxypropylcellulose) (HPC)
  T/C: 87 % of control and 93 % of control

## Oc1ccccc1C(Nc1nc2ccccc2s1)c1ccc2cccnc2c1O (stereo unspecified)
[6]
  T/C: 114 % of control
[1]
  T/C: 105 % of control and 119 % of control (2×)
dose: 75.0 mg/kg/injection, schedule: Q01DX009 (ip), vehicle: Klucel (hydroxypropylcellulose) (HPC)
  T/C: 107 % of control
[2]
  T/C: 110 % of control and 119 % of control
dose: 150.0 mg/kg/injection, schedule: Q01DX009 (ip), vehicle: Klucel (hydroxypropylcellulose) (HPC)
  T/C: 97 % of control
[3]
  T/C: 124 % of control
[4]
  T/C: 152 % of control

## COc1cccc(/C=N/NC(=O)c2ccccc2N2CCCC2)c1O
dose: 12.5 mg/kg/injection, schedule: Q01DX009 (ip), vehicle: olive oil, sesame oil, peanut oil
  T/C: 89 % of control
dose: 50.0 mg/kg/injection, schedule: Q01DX009 (ip), vehicle: olive oil, sesame oil, peanut oil
  T/C: 89 % of control
dose: 100.0 mg/kg/injection, schedule: Q01DX009 (ip), vehicle: olive oil, sesame oil, peanut oil
  T/C: 87 % of control
dose: 200.0 mg/kg/injection, schedule: Q01DX009 (ip), vehicle: olive oil, sesame oil, peanut oil
  T/C: 86 % of control
dose: 400.0 mg/kg/injection, schedule: Q01DX009 (ip), vehicle: olive oil, sesame oil, peanut oil
  T/C: 96 % of control

## CCOC(=O)c1ccc(=O)[nH]c1.[Ag]
dose: 3.13 mg/kg/injection, schedule: Q01DX009 (ip), vehicle: Klucel (hydroxypropylcellulose) (HPC)
  T/C: 108 % of control
dose: 6.25 mg/kg/injection, schedule: Q01DX009 (ip), vehicle: Klucel (hydroxypropylcellulose) (HPC)
  T/C: 100 % of control
[5]
  T/C: 91 % of control

## Oc1ccc(C2(c3ccc(O)cc3)CCCCC2)cc1
dose: 50.0 mg/kg/injection, schedule: Q01DX009 (ip), vehicle: acetone
  T/C: 97 % of control

From PubChem BioAssay AID192 (DTP/NCI, 2004)
